Here are results for six compounds from US20190022110A1, “AQUEOUS BASED CAPSAICINOID FORMULATIONS AND METHODS OF MANUFACTURE AND USE” (VIZURI HEALTH SCIENCES LLC, priority 2012, published 2019).

Converted amounts (≈) assume the structure as drawn.

For series [1] the following is noted: cited from earlier work.
A further series in a line: physchem. The settings on record: for solubility: aqueous with cosolvent or surfactant or cyclodextrin. On the procedure:
The teachings of this application were utilized in solubilizing capsaicin in a high purity PS 80 obtained from Croda Inc.
• 1. 10 grams of PS 80 are added to a 50 ml “Pyrex” glass vial. • 2. 2 grams of Trans-Capsaicin are added to the PS 80 in Step 1. • 3. The mixture from Step 2 is heated to ˜55° C. to dissolve the Trans-Capsaicin and form the Trans-Capsaicin/PS80 concentrate.

In the next series the test system is peripheral nociceptors. As to conditions: cited from earlier work.
In another series the test system is arthritic knee joints. The series can be described thus: Clinical study: corticosteroid pretreatment and pain due to intra-articular capsaicin injection. Type of series: in vivo, human. On the procedure: This study examined the administration of a corticosteroid as an adjunctive agent prior to the administration of capsaicin to attenuate the burning and stinging effect resulting for the intra-articular injection of capsaicin into the knee joint.
Tests were conducted to evaluate the effectiveness of a corticosteroid injection into a site prior to injection of a capsaicin formulation. Subjects with arthritic knee joints were selected and treated as follows: • The knee joint to be treated was cleaned with Betadine or other suitable antiseptic agent. • A […].
Procedures and resulting pain level experienced by the injection of subjects injected with a 0.2 mg dose level of the capsaicin formulation as a function of elapsed time are summarized in Tables IX to XV. […] A description of the 6 knees treated with the capsaicin injections follows.

For series [2] the following is noted: in vivo; cited from earlier work.
Setting [3] is: knee #1, patient #1, Depo-Medrol, no Lidocaine, 0.2 mg capsaicin.
Setting [4] is: knee #2, patient #2, Depo-Medrol, Lidocaine, 0.2 mg capsaicin.
The mark [5] stands for this setting: knee #3, patient #3, Depo-Medrol, Lidocaine, 0.2 mg capsaicin.
Setting [6] is: knee #4, patient #4 left, Depo-Medrol, gel pack, Lidocaine, 0.2 mg capsaicin.
Where [7] appears, read: knee #5, patient #4 right, no corticosteroid, Lidocaine, 0.2 mg capsaicin.
The mark [8] stands for this setting: knee #6, patient #1 right, Depo-Medrol, cold pack, Lidocaine, 0.2 mg capsaicin.

For the compound `CCOC(=O)c1ccc(N)cc1` [Benzocaine], in series [1], the “Aqueous Soluble” value is listed as “sparingly” and the “Oil Soluble” value was “soluble”.
In general, solubility refers to how much of the substance goes into solution per volume. The low end stands for a poorly soluble substance, the high end for a readily soluble substance. Regarding `COc1cc(CNC(=O)CCCC/C=C/C(C)C)ccc1O` [Capsaicin], in the series “physchem”, the “capsaicin concentration achieved in PS 80” value amounted to 200 mg/mL, the “capsaicin solubility with PEG-400 compared to PS80” value is “did not achieve the capsaicin solubility levels” and the “supersaturation of Capsaicin/PS 80 solution” value was “not supersaturated”. The “dissolution of capsaicin without pre-formed concentrate” value in “physchem” (PS 80 and capsaicin added to water, then heated to ~70° C.-90° C.) was “only a fraction of the capsaicin dissolving”. Besides, the solubility in “physchem” (aqueous capsaicin solubility level) is 20000 µg/mL (≈ 65.5 mM). In addition, the concentration in solution in “physchem” (aqueous capsaicin solubility level, 2 ml capsaicin/PS 80 concentrate added to 98 grams of ~70° C. water, cooled to room temperature) (solubility) came to 4000 µg/mL (≈ 13.1 mM). For the same compound, the solubility in the series “physchem” (increase of aqueous solubility of capsaicin) is around 1000 µg/mL (≈ 3.27 mM). In addition, the “duration of subsequent mild pain” value in the series on peripheral nociceptors (injectable capsaicin formulations, after the intense B&S pain) was 1 to 2 h. Besides, the “duration of intense burning and stinging (B&S) pain” value with peripheral nociceptors (injectable capsaicin formulations) is reported as “up to 1 hour”. The “persistence of spontaneous burning pain and hyperalgesia” value in the series with peripheral nociceptors (upon capsaicin injection in clinical trials) is listed as “up to 60 minutes”. Also, in series [1], the “Aqueous Soluble” value was “insoluble” and the “Oil Soluble” value is on record as “soluble”. In addition, in the series with arthritic knee joints (all patients, 0.2 mg capsaicin intra-articular), the “pain status of treated knees as of the date of filing” value was “remain pain free”. In the series with arthritic knee joints (in one case), the duration pain free result is listed as “over 3 weeks”. In the series with arthritic knee joints (setting [3]), the “duration of extreme pain following capsaicin injection” value is “about 1 hour”, the “relief of arthritic pain symptoms” value was “significant relief of their arthritic pain symptoms” and the “time of procedure until relief of arthritic pain symptoms” value is around 80 min. Further, in the series on arthritic knee joints (setting [4]), the “relief of arthritic pain symptoms” value is given as “complete relief of their osteoarthritic pain symptoms”; the “time until procedure completed and pain relief” value was “about 30 minutes”. Moreover, in the series with arthritic knee joints (setting [5]), the “relief of arthritic pain symptoms” value is “complete relief for their painful arthritic symptoms”; the “time until procedure concluded and pain relief” value is listed as “about 23 minutes”. In addition, in the series with arthritic knee joints (setting [6]), the “relief of arthritic pain symptoms” value is on record as “complete relief of their painful severe osteoarthritis pain” and the “time pain level remained at a mild level before complete relief” value was “about 13 minutes”. In addition, in the series on arthritic knee joints (setting [7]), the “relief of arthritic pain symptoms” value is listed as “alleviated their painful arthritic symptoms” and the “time until arthritic symptoms alleviated” value was around 25 min. Besides, in the series with arthritic knee joints (setting [8]), the “relief of arthritic pain symptoms” value is “complete relief of their painful arthritic symptoms”; the “time until procedure concluded and pain relief” value is “about 17 minutes”.
Turning to `CCO` [Ethyl Alcohol], in series [1], the “Aqueous Soluble” value is reported as “miscible” and the “Oil Soluble” value is reported as “soluble”.
Take `CC1CCC(C(C)C)C(O)C1` (stereo not drawn) [Menthol]: in series [1], the “Aqueous Soluble” value is “slightly” and the “Oil Soluble” value is “soluble”.
With `CCCNC(C)C(=O)Nc1ccccc1C` (stereo not drawn) [Prilocaine], in series [1], the “Aqueous Soluble” value was “sparingly” and the “Oil Soluble” value is “soluble”.
Take Polyethylene glycol [PEG]: the systemic absorption entry in series [2] is “less than 0.5%”.
